Columns and labels:
Assay in all cases: relative viability (nuclei count vs DMSO), 5 days (fraction); higher = more cells survive
FG-4592 + Lapatinib = compound: Cc1nc(C(=O)NCC(=O)O)c(O)c2ccc(Oc3ccccc3)cc12 [FG-4592] + CS(=O)(=O)CCNCc1ccc(-c2ccc3ncnc(Nc4ccc(OCc5cccc(F)c5)c(Cl)c4)c3c2)o1 [Lapatinib] (partner 2 µM)
Procedure, shortened: (§1)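 Five library-drug doses in √10 steps were combined with a fixed anchor-drug dose, or a single drug was given alone, by pin tool to lung cancer cell lines in 1536-well plates the day after seeding. Nuclei were stained and counted after 5 days. Relative viability is the nuclei count in treated wells over that in vehicle wells, taken as the median of duplicate plates.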

FG-4592 + Alpelisib = compound: Cc1nc(C(=O)NCC(=O)O)c(O)c2ccc(Oc3ccccc3)cc12 [FG-4592] + Cc1nc(NC(=O)N2CCC[C@H]2C(N)=O)sc1-c1ccnc(C(C)(C)C(F)(F)F)c1 [Alpelisib] (partner 2 µM)
Procedure, shortened: as §1

IU1-47 + Vorinostat = compound: CC1=CC(=C(N1C2=CC=C(C=C2)Cl)C)C(=O)CN3CCCCC3 [IU1-47] + O=C(CCCCCCC(=O)Nc1ccccc1)NO [Vorinostat] (partner 1 µM)
Procedure, shortened: as §1

IU1-47 + Decitabine = compound: CC1=CC(=C(N1C2=CC=C(C=C2)Cl)C)C(=O)CN3CCCCC3 [IU1-47] + Nc1ncn([C@H]2C[C@H](O)[C@@H](CO)O2)c(=O)n1 [Decitabine] (partner 2 µM)
Procedure, shortened: as §1

Cell Line | relative viability (FG-4592 + Lapatinib; first compound 0.08 µM) | relative viability (FG-4592 + Lapatinib; first compound 0.253 µM) | relative viability (FG-4592 + Lapatinib; first compound 0.8 µM) | relative viability (FG-4592 + Lapatinib; first compound 2.53 µM) | relative viability (FG-4592 + Lapatinib; first compound 8 µM) | relative viability (FG-4592 + Alpelisib; first compound 0.08 µM) | relative viability (FG-4592 + Alpelisib; first compound 0.253 µM) | relative viability (FG-4592 + Alpelisib; first compound 0.8 µM) | relative viability (FG-4592 + Alpelisib; first compound 2.53 µM) | relative viability (FG-4592 + Alpelisib; first compound 8 µM) | relative viability (IU1-47 + Vorinostat; first compound 0.08 µM) | relative viability (IU1-47 + Vorinostat; first compound 0.253 µM) | relative viability (IU1-47 + Vorinostat; first compound 0.8 µM) | relative viability (IU1-47 + Vorinostat; first compound 2.53 µM) | relative viability (IU1-47 + Vorinostat; first compound 8 µM) | relative viability (IU1-47 + Decitabine; first compound 0.08 µM) | relative viability (IU1-47 + Decitabine; first compound 0.253 µM) | relative viability (IU1-47 + Decitabine; first compound 0.8 µM) | relative viability (IU1-47 + Decitabine; first compound 2.53 µM) | relative viability (IU1-47 + Decitabine; first compound 8 µM)
201T | 0.976 | 1.03 | 0.931 | 1.04 | 1.01 | 0.96 | 0.96 | 0.879 | 1.02 | 1.03 | 1.08 | 1.03 | 1.07 | 0.356 | 0.915 | 0.891 | 0.864 | 0.943 | 0.867 | 0.856
A549 | 0.917 | 0.975 | 1.03 | 1.07 | 0.946 | 0.831 | 0.626 | 0.823 | 0.759 | 0.686 | – | – | – | – | – | 0.284 | 0.321 | 0.335 | 0.253 | 0.221
A-427 | 0.975 | 1.05 | 0.943 | 0.953 | 1.03 | 1.04 | 1.07 | 1.04 | 1.13 | 1.05 | 0.894 | 0.847 | 0.841 | 0.883 | 0.836 | 0.556 | 0.583 | 0.517 | 0.547 | 0.5
ABC-1 | 1.11 | 1.11 | 1.06 | 1.08 | 0.801 | 1.17 | – | 1.17 | 0.958 | 0.866 | 1.32 | 1.08 | 0.987 | – | 1.06 | 1.23 | 1.32 | 0.922 | – | 1.19
BEN | 0.495 | 0.507 | 0.555 | 0.822 | 0.475 | 0.831 | 0.807 | 0.753 | 0.965 | 0.701 | 0.605 | 0.653 | 0.681 | 0.564 | 0.544 | 0.713 | 0.729 | 0.848 | 0.507 | 0.668
CAL-12T | 0.646 | 0.599 | 0.492 | 0.647 | 0.667 | 1.13 | 1.23 | 1.55 | 1.13 | 0.971 | 0.826 | 0.759 | 0.711 | 0.747 | 0.841 | – | – | – | – | –
COR-L23 | 0.906 | 0.914 | 0.965 | 0.838 | 0.81 | 0.751 | 0.653 | 0.918 | 0.768 | 0.783 | 0.383 | 0.514 | 0.439 | 0.466 | 0.404 | 0.337 | 0.45 | 0.481 | 0.432 | 0.436
COR-L 105 | 0.348 | 0.342 | 0.264 | 0.382 | 0.329 | 1.07 | 0.91 | 0.981 | 0.732 | 1.02 | 1.02 | 1.01 | 0.779 | 0.745 | 0.958 | 0.793 | 0.624 | 0.677 | 0.751 | 0.66
Calu-6 | 1.01 | 1 | 1.12 | 1.08 | 1.07 | 0.952 | 0.846 | 1.12 | 0.985 | 0.969 | – | – | – | – | – | – | – | – | – | –
ChaGo-K-1 | – | – | – | – | – | – | – | – | – | – | 0.835 | 0.766 | 0.806 | 0.623 | 0.717 | 0.531 | 0.529 | 0.542 | 0.536 | 0.533
EBC-1 | 0.24 | 0.25 | 0.206 | 0.201 | 0.232 | 0.895 | 0.816 | 0.736 | 0.693 | 0.814 | – | – | – | – | – | – | – | – | – | –
EKVX | 0.226 | 0.213 | 0.195 | 0.278 | 0.375 | 0.786 | 0.858 | 0.932 | 0.79 | 0.932 | 0.951 | 0.632 | 0.846 | 0.573 | 0.631 | 0.376 | 0.339 | 0.364 | – | 0.352
EMC-BAC-2 | 0.853 | 0.866 | 0.808 | 0.731 | 0.842 | 0.745 | 0.718 | 0.705 | 0.764 | 0.713 | 0.456 | 0.488 | 0.42 | 0.442 | 0.419 | 1.07 | 1.03 | 0.996 | 1.07 | 0.924
EPLC-272H | 1.12 | 0.795 | 0.586 | 0.962 | 0.916 | 0.834 | 0.799 | 0.643 | 0.946 | 0.887 | 0.382 | 0.55 | 0.494 | 0.394 | 0.461 | 0.362 | 0.38 | 0.4 | – | 0.34
H3255 | 0.275 | 0.235 | 0.271 | 0.257 | 0.26 | 0.634 | 0.664 | 0.67 | 0.791 | 0.81 | 0.918 | 0.883 | 1.02 | – | 0.669 | 0.696 | 0.681 | 0.689 | – | 0.453
HARA | 0.677 | 0.719 | – | 0.728 | 0.667 | 0.805 | 0.728 | – | 0.945 | 0.827 | 0.421 | 0.679 | 0.646 | 0.575 | 0.479 | 0.494 | – | 0.524 | 0.489 | 0.486
HCC-15 | 0.883 | 0.706 | 0.852 | 0.871 | 0.944 | 0.883 | 0.856 | 0.913 | 0.871 | 0.915 | 0.885 | 0.894 | 0.946 | 0.766 | 0.731 | 0.619 | 0.586 | 0.63 | 0.552 | 0.461
HCC-44 | 0.99 | 0.948 | 0.835 | 0.96 | 0.96 | 0.767 | 0.786 | 0.876 | 0.936 | 0.797 | 1.16 | 1.09 | 1.11 | 1.13 | 1.09 | 0.982 | 0.938 | 0.966 | 0.917 | 1.03
